Series [1] in a line: Plasma pharmacokinetics, Phase I open‐label two‐group fixed‐sequence drug‐drug interaction study. As to conditions: for AUC0‐24 h LSM ratio / C max LSM ratio: point estimate (90% CI); for AUC: AUC0‐24 h; for Tmax: T max. From the text: This was an open‐label, two‐group, fixed‐sequence study conducted at a single study center in Rennes, France (Biotrial). A two‐group, fixed‐sequence study design was chosen as this was deemed to be the most efficient way to evaluate the effect of simeprevir with/without odalasvir on AL‐335; and vice versa (Group 1) and the effect of odalasvir with/without simeprevir on AL‐335; and vice versa (Group 2). Thus, this study design had the potential to gather both 2‐way and 3‐way DDIs. For both groups, the study consisted of a screening period, a study period, and two follow‐up visits. The study was authorized by the French National Agency for the Safety of Medicine and Health Products (ANSM) and was approved by an Independent Ethics Committee (Comité de Protection des Personnes [CPP] Ouest VI, Brest, France; Reference CPP Ouest 6–CPP 888/MS1), and was conducted in accordance with the principles of the Declaration of Helsinki and International Conference on Harmonization. All subjects provided written informed consent to participate. Drug and molecular target nomenclature in this manuscript conforms to the British Journal of Pharmacology's Concise Guide to Pharmacology 2017/18.19
Subjects in Group 1 received simeprevir 150 mg QD on days 4‐23, odalasvir 150 mg (loading dose) on day 14, odalasvir 50 mg QD on days 15‐23, and AL‐335 800 mg QD on days 1‐3, 11‐13, and 21‐23. Subjects in Group 2 received odalasvir 150 mg (loading dose) on day 4, odalasvir 50 mg QD on days 5‐23, simeprevir 150 mg QD on days 14‐23, and AL‐335 800 mg QD on days 1‐3, 11‐13, and 21‐23. […] A minimum of 10 days was considered sufficient for both odalasvir and simeprevir to reach steady‐state.
Subjects were assigned sequentially to Group 1 then to Group 2 after confirming eligibility.
As this was an […] pharmacokinetic study, blood samples for pharmacokinetic analysis were collected predose and at 0.25, 0.5, 1, 2, 3, 4, 6, 8, 10, 12, and 24 hours postdose on days 3, 13, and 23 for determination of AL‐335, ALS‐022399, and ALS‐022227 plasma concentrations (Groups 1 and 2). For simeprevir, blood samples for determination of simeprevir plasma concentrations were taken at the same time points but on days 10, 13, 20, and 23 (Group 1) or days 20 and 23 (Group 2). Blood samples for the determination of odalasvir plasma concentrations were collected predose and at 1, 3, 4, 5, 6, 7, 8, 9, 10, 12, 16, and 24 hours postdose on days 20 and 23 (Group 1) or days 10, 13, 20, and 23 (Group 2), with two further samples also collected on the day 7 and day 28 follow‐up assessments (both groups).
Plasma concentrations of AL‐335, ALS‐022399, ALS‐022227, odalasvir, and simeprevir were determined using validated liquid chromatography‐tandem mass spectrometry methods. Dichlorvos solution was added to blood samples from AL‐335‐treated subjects to stabilize AL‐335 and its metabolites (25 μL of 5 mmol/L dichlorvos into 1 mL blood). The lower limit of quantification was 1 ng/mL, 2 ng/mL, and 5 ng/mL for AL‐335, ALS‐022399, and ALS‐022227, respectively, 1 ng/mL for odalasvir, and 2 ng/mL for simeprevir.
Pharmacokinetic analyses were performed on all subjects with available profiles who received at least one dose of study drug without any protocol deviation affecting pharmacokinetic evaluation. […] Secondary parameters were last observed plasma concentration, apparent elimination half‐life, time of the maximum observed plasma concentration (T max), and time to last measurable plasma concentration (T last).

A further series has as its system P‐glycoprotein. As to conditions: cited from earlier work.
The test system of a further series is OATP1B1/1B3. As to conditions: cited from earlier work.
For series [2], the system named is host polymerases, including the mitochondrial RNA polymerase. The note with it: cited from earlier work.
For series [3], the system named is CYPs 1A2, 2B6, 2C8, 2C9, 2C19, 2D6, and 3A4. Further details: method as in data on file. The note with it: ref data on file; cited from earlier work.
In series [4] the test system is breast cancer resistance protein (BCRP). As to conditions: ref data on file; cited from earlier work.
For series [5] the following is noted: in vivo; cited from earlier work.
The mark [6] stands for this setting: Group 1 Day 3, AL‐335 alone, mean (SD).
Where [7] appears, read: Group 1 Day 13, AL‐335 + SMV, mean (SD).
Where [8] appears, read: Group 1 Day 23, AL‐335 + ODV + SMV versus AL‐335 alone.
[9] abbreviates: Group 1 Day 23, AL‐335 + ODV + SMV, mean (SD).
Setting [10] is: Group 2 Day 3, AL‐335 alone, mean (SD).
[11] abbreviates: Group 2 Day 13, AL‐335 + ODV, mean (SD).
The mark [12] stands for this setting: Group 2 Day 23, AL‐335 + ODV + SMV versus AL‐335 alone.
Where [13] appears, read: Group 2 Day 23, AL‐335 + ODV + SMV, mean (SD).

Results on three compounds are retold here after PMC5927802, “Pharmacokinetics, safety, and tolerability of the 2‐ and 3‐direct‐acting antiviral combination of AL‐335, odalasvir, and simeprevir in healthy subjects” (Pharmacology Research & Perspectives, 2018).

By AUC is commonly meant concentration integrated over time. Usually Tmax stands for the time from dosing to the highest level. Usually half-life stands for the time needed for the level to fall by half in the phase considered.

Like-named read-outs stand apart in the source and are kept apart here.

For `C[C@]1(O)[C@H](n2ccc(=O)[nH]c2=O)O[C@](F)(CO)[C@H]1O` [ALS‐022227], in series [1] (human, in vivo), the “difference in T max between any of the treatment combinations” value is “No clinically relevant difference” and the “t 1/2” value is given as 6.0 (0.5) h. For the same compound, the “P‐glycoprotein substrate / inhibitor status” value with P‐glycoprotein was “neither substrates nor inhibitors”. Also, the “OATP1B1/1B3 substrate / inhibitor status” value with OATP1B1/1B3 is reported as “neither substrates nor inhibitors”.

Consider `CC(C)OC(=O)[C@H](C)N[P@](=O)(OC[C@@]1(F)O[C@@H](n2ccc(=O)[nH]c2=O)[C@](C)(O)[C@@H]1O)Oc1ccccc1` [AL‐335], for which, in series [1] (AL‐335 alone or with odalasvir and/or simeprevir), the “difference in T max between any of the treatment combinations” value is “No clinically relevant difference”. The C last was 6 (8) ng/mL in series [1] (setting [6]); 3 (2) ng/mL in series [1] (setting [7]); 3 (1) ng/mL in series [1] (setting [9]); 3 (2) ng/mL in series [1] (setting [10]); 2 (1) ng/mL in series [1] (setting [11]); 2 (1) ng/mL in series [1] (setting [13]). The C max in series [1] (setting [6]) was 162 (77) ng/mL; in series [1] (setting [7]), 376 (186) ng/mL; in series [1] (setting [9]) it was 747 (340) ng/mL; in series [1] (setting [10]) it was 151 (72) ng/mL; in series [1] (setting [11]), 516 (259) ng/mL; in series [1] (setting [13]), 950 (472) ng/mL. In addition, the T last in series [1] (Group 1 Day 3, AL‐335 alone, median (range)) was 6.00 (4.00‐6.00) h; in series [1] (Group 1 Day 13, AL‐335 + SMV, median (range)), 8.00 (6.00‐10.00) h; in series [1] (Group 1 Day 23, AL‐335 + ODV + SMV, median (range)), 8.00 (6.00‐10.08) h; in series [1] (Group 2 Day 3, AL‐335 alone, median (range)), 6.00 (4.00‐8.00) h; in series [1] (Group 2 Day 13, AL‐335 + ODV, median (range)), 8.00 (4.00‐12.00) h; in series [1] (Group 2 Day 23, AL‐335 + ODV + SMV, median (range)) it was 10.00 (8.00‐12.03) h. The results for the “AUC0‐24 h LSM ratio” value in series [1] (setting [8]) and in series [1] (setting [12]) were 6.92 (5.46‐8.77) and 8.23 (6.26‐10.82), respectively. In addition, the “C max LSM ratio” value is given as 4.60 (3.68‐5.75) in series [1] (setting [8]) and 6.30 (4.93‐8.05) in series [1] (setting [12]). The exposure (AUC) in series [1] (human, in vivo, 800 mg, Group 1 Day 3, AL‐335 alone, mean (SD)) was 295 ng·h/mL; in series [1] (human, in vivo, 800 mg, Group 2 Day 3, AL‐335 alone, mean (SD)), 324 ng·h/mL; in series [1] (human, in vivo, Group 1 Day 13, AL‐335 + SMV, mean (SD)) it was 1000 ng·h/mL; in series [1] (human, in vivo, Group 1 Day 23, AL‐335 + ODV + SMV, mean (SD)), 2080 ng·h/mL; in series [1] (human, in vivo, Group 2 Day 13, AL‐335 + ODV, mean (SD)), 1330 ng·h/mL; in series [1] (human, in vivo, Group 2 Day 23, AL‐335 + ODV + SMV, mean (SD)), 2920 ng·h/mL. In addition, the Tmax came out at 2 h in series [1] (human, in vivo, 800 mg, Group 1 Day 3, AL‐335 alone, median (range)); 2 h in series [1] (human, in vivo, 800 mg, Group 2 Day 3, AL‐335 alone, median (range)); 2 h in series [1] (human, in vivo, Group 1 Day 13, AL‐335 + SMV, median (range)); 2 h in series [1] (human, in vivo, Group 1 Day 23, AL‐335 + ODV + SMV, median (range)); 2 h in series [1] (human, in vivo, Group 2 Day 13, AL‐335 + ODV, median (range)); 3 h in series [1] (human, in vivo, Group 2 Day 23, AL‐335 + ODV + SMV, median (range)). The half-life was 0.61 h in series [1] (human, in vivo, 800 mg, t 1/2, Group 1 Day 3, AL‐335 alone, mean (SD)); 0.69 h in series [1] (human, in vivo, 800 mg, t 1/2, Group 2 Day 3, AL‐335 alone, mean (SD)); 0.64 h in series [1] (human, in vivo, t 1/2, Group 1 Day 13, AL‐335 + SMV, mean (SD)); 0.69 h in series [1] (human, in vivo, t 1/2, Group 1 Day 23, AL‐335 + ODV + SMV, mean (SD)); 0.62 h in series [1] (human, in vivo, t 1/2, Group 2 Day 13, AL‐335 + ODV, mean (SD)); 0.84 h in series [1] (human, in vivo, t 1/2, Group 2 Day 23, AL‐335 + ODV + SMV, mean (SD)). In addition, the “AUC 0‐24 h increase” value in series [1] (odalasvir given alone with AL‐335 (abstract)) was 3 fold; in series [1] (simeprevir given alone with AL‐335 (abstract)), 4 fold. The “interaction with host polymerases” value in series [2] is on record as “do not interact”. For the same compound, in series [3], the “inhibition potential for CYPs” value was “low inhibition potential”. Also, the BCRP substrate status result in series [4] is recorded as “substrate”. Moreover, in the series with OATP1B1/1B3 (ref data on file), the “OATP1B1/1B3 substrate / inhibitor status” value is listed as “neither a substrate nor an inhibitor”.

As to `COC(=O)N[C@H](C(=O)N1[C@H](c2nc3cc(-c4cc5ccc4CCc4ccc(c(-c6ccc7[nH]c([C@@H]8C[C@@H]9CCCC[C@@H]9N8C(=O)[C@@H](NC(=O)OC)C(C)C)nc7c6)c4)CC5)ccc3[nH]2)C[C@@H]2CCCC[C@@H]21)C(C)C` [odalasvir], in series [1] (human, in vivo), the “AUC0‐24 h” value is 8694 (3956) ng.h/mL; the C max is on record as 582 (221) ng/mL; the T max is 5.00 (5.0‐7.0) h; the “increase in exposure (C max, C min, AUC0‐24 h)” value is on record as 1.5‐ to 2. In series [1] (in vivo), the C min is 235 (132) ng/mL, the Clast is on record as 287 (150) ng/mL and the T last was 23.9 (23.9‐24.0) h. Moreover, in series [5], the “clearance route and metabolism” value was “primarily cleared by biliary secretion and undergoes minimal metabolism”; the “drug‐drug interactions (DDIs)” value is “No clinically significant drug‐drug interactions”; the “terminal elimination half‐life” value is listed as “approximately 250 hours”.
